Measured values: EPA's CvTdb concentration-time database

How the values were obtained:
[1] = system: Rat; assay: concentration in liver after dosing; settings: 24 h; dosed: Perfluorodecanoic acid; 10 mg/kg; oral; Female; Harlan Sprague Dawley
[2] = system: Rat; assay: concentration in plasma after dosing; settings: dosed: Perfluorodecanoic acid, 2 mg/kg, iv, Male, F344
[3] = system: Rat; assay: concentration in plasma after dosing; settings: dosed: Perfluorodecanoic acid, 2 mg/kg, oral, Male, Harlan Sprague Dawley
[4] = system: Rat; assay: concentration in liver after dosing; settings: 24 h; dosed: Perfluorodecanoic acid; 10 mg/kg; oral; Female; Harlan Sprague Dawley; remark: listed apart in the source
[5] = system: Rat; assay: concentration in liver after dosing; settings: 24 h; dosed: Perfluorodecanoic acid; 10 mg/kg; oral; Male; Harlan Sprague Dawley
[6] = system: Rat; assay: concentration in plasma after dosing; settings: 20 min; dosed: dichloroacetic acid; 10 mg/kg; oral; Male; Harlan Sprague Dawley
[7] = system: Rat; assay: concentration in plasma after dosing; settings: 18 h; dosed: Primidone; 30 mg/kg; oral; Male; F344
[8] = system: Rat; assay: concentration in plasma after dosing; settings: 18 h; dosed: Primidone; 80 mg/kg; oral; Male; F344
[9] = system: Rat; assay: concentration in plasma after dosing; settings: 0.5 h; dosed: Primidone; 30 mg/kg; oral; Male; F344
[10] = system: Rat; assay: concentration in plasma after dosing; settings: 1 h; dosed: Wyeth-14643; 2.0 mg/kg; iv; Male; Sprague-Dawley
[11] = system: Rat; assay: concentration in plasma after dosing; settings: dosed: Wyeth-14643, 1.0 mg/kg, oral, Male, Sprague-Dawley
[12] = system: Rat; assay: concentration in plasma after dosing; settings: 4 h; dosed: Wyeth-14643; 5.0 mg/kg; oral; Male; Sprague-Dawley
[13] = system: Rat; assay: concentration in plasma after dosing; settings: dosed: Fluorotelomer alcohol 8+2, 24 mg/kg, oral, Male, Harlan Sprague Dawley
[14] = system: Rat; assay: concentration in liver after dosing; settings: 12 h; dosed: Fluorotelomer alcohol 8+2; 80 mg/kg; oral; Female; Harlan Sprague Dawley
[15] = system: Rat; assay: concentration in kidney after dosing; settings: 3 h; dosed: Fluorotelomer alcohol 8+2; 24 mg/kg; oral; Male; Harlan Sprague Dawley
[16] = system: Rat; assay: concentration in plasma after dosing; settings: 3 h; dosed: Fluorotelomer alcohol 8+2; 12 mg/kg; iv; Male; F344
[17] = system: Rat; assay: concentration in plasma after dosing; settings: dosed: Fluorotelomer alcohol 8+2, 40 mg/kg, iv, Female, Harlan Sprague-Dawley
[18] = system: Rat; assay: concentration in plasma after dosing; settings: 5 min; dosed: Fluorotelomer alcohol 8+2; 12 mg/kg; iv; Male; F344
[19] = system: Rat; assay: concentration in heart after dosing; settings: 10 h; dosed: Thiodiglycolic Acid; 20 mg/kg; iv; Male; F344
[20] = system: Rat; assay: concentration in thymus after dosing; settings: 5.333 h; dosed: Thiodiglycolic Acid; 20 mg/kg; iv; Female; Harlan Sprague Dawley
[21] = system: Rat; assay: concentration in thymus after dosing; settings: 3 h; dosed: Thiodiglycolic Acid; 20 mg/kg; iv; Male; Harlan Sprague Dawley
[22] = system: Rat; assay: concentration in plasma after dosing; settings: 20 min; dosed: Thiodiglycolic Acid; 20 mg/kg; iv; Female; F344
[23] = system: Rat; assay: concentration in thymus after dosing; settings: 20 min; dosed: Thiodiglycolic Acid; 20 mg/kg; iv; Female; F344
[24] = system: Rat; assay: concentration in thymus after dosing; settings: 5 h; dosed: Bis 2-Chloroethoxy Methane; 20 mg/kg; iv; Male; F344
[25] = system: Rat; assay: concentration in plasma after dosing; settings: 3 h; dosed: Bis 2-Chloroethoxy Methane; 20 mg/kg; iv; Male; F344
[26] = system: Rat; assay: concentration in plasma after dosing; settings: 40 min; dosed: Bis 2-Chloroethoxy Methane; 20 mg/kg; iv; Male; F344
[27] = system: Rat; assay: concentration in liver after dosing; settings: 4 h; dosed: Bis 2-Chloroethoxy Methane; 20 mg/kg; iv; Male; F344
[28] = system: Rat; assay: concentration in plasma after dosing; settings: 1 h; dosed: Bis 2-Chloroethoxy Methane; 40 mg/kg; iv; Male; Harlan Sprague Dawley
[29] = system: Rat; assay: concentration in plasma after dosing; settings: 20 min; dosed: Bis 2-Chloroethoxy Methane; 20 mg/kg; iv; Female; F344
[30] = system: Rat; assay: concentration in heart after dosing; settings: 2 h; dosed: Bis 2-Chloroethoxy Methane; 20 mg/kg; iv; Male; F344
[31] = system: Rat; assay: concentration in thymus after dosing; settings: 5 h; dosed: Bis 2-Chloroethoxy Methane; 20 mg/kg; iv; Male; F344; remark: listed apart in the source
[32] = system: Rat; assay: concentration in plasma after dosing; settings: 4 h; dosed: Bis 2-Chloroethoxy Methane; 20 mg/kg; iv; Female; F344
[33] = system: Rat; assay: concentration in plasma after dosing; settings: 6 h; dosed: Di-n-butyl phthalate; 50 mg/kg; oral; Male; Sprague-Dawley
[34] = system: Rat; assay: concentration in plasma after dosing; settings: 6 h; dosed: Di-n-butyl phthalate; 50 mg/kg; oral; Male; Sprague-Dawley; remark: listed apart in the source
[35] = system: Rat; assay: concentration in plasma after dosing; settings: 6 h; dosed: Di-n-butyl phthalate; 20 mg/kg; iv; Male; Sprague-Dawley
[36] = system: Rat; assay: concentration in plasma after dosing; settings: 1 h; dosed: Di-n-butyl phthalate; 50 mg/kg; oral; Male; Sprague-Dawley
[37] = system: Rat; assay: concentration in plasma after dosing; settings: 40 min; dosed: Di-n-butyl phthalate; 20 mg/kg; iv; Male; Sprague-Dawley
[38] = system: Rat; assay: concentration in plasma after dosing; settings: 20 min; dosed: Di-n-butyl phthalate; 50 mg/kg; oral; Male; Sprague-Dawley
[39] = system: Rat; assay: concentration in plasma after dosing; settings: 6 h; dosed: Di-n-butyl phthalate; 100 mg/kg; oral; Male; Sprague-Dawley

## O=C(O)C(F)(F)C(F)(F)C(F)(F)C(F)(F)C(F)(F)C(F)(F)C(F)(F)C(F)(F)C(F)(F)F [Perfluorodecanoic acid]
[1]
  concentration in liver: 139000 ng/g
[2]; 1 h
  concentration in plasma: 6010 ng/mL
[2]; 528 h
  concentration in plasma: 3220 ng/mL
[2]; 3360 h
  concentration in plasma: 204 ng/mL
[3]; 12 h
  concentration in plasma: 8900 ng/mL
[3]; 1200 h
  concentration in plasma: 1160 ng/mL
[4]
  concentration in liver: 138000 ng/g
[5]
  concentration in liver: 105000 ng/g

## O=C(O)C(Cl)Cl [dichloroacetic acid]
[6]
  concentration in plasma: 680 ng/mL

## CCC1(c2ccccc2)C(=O)NC(=O)NC1=O [Phenobarbital]
[7]
  concentration in plasma: 1540 ng/mL
[8]
  concentration in plasma: 3110 ng/mL
[9]
  concentration in plasma: 330 ng/mL

## Cc1cccc(Nc2cc(Cl)nc(SCC(=O)O)n2)c1C
[10]
  concentration in plasma: 2190 ng/mL
[11]; 0.5 h
  concentration in plasma: 1180 ng/mL
[11]; 6 h
  concentration in plasma: 202 ng/mL
[12]
  concentration in plasma: 955 ng/mL

## OCCC(F)(F)C(F)(F)C(F)(F)C(F)(F)C(F)(F)C(F)(F)C(F)(F)C(F)(F)F [Fluorotelomer alcohol 8+2]
[13]; 0.25 h
  concentration in plasma: 176 ng/mL
[13]; 24 h
  concentration in plasma: 3.78 ng/mL
[14]
  concentration in liver: 1160 ng/g
[15]
  concentration in kidney: 631 ng/g
[16]
  concentration in plasma: 106 ng/mL
[17]; 1 h
  concentration in plasma: 3650 ng/mL
[17]; 24 h
  concentration in plasma: 26.8 ng/mL
[18]
  concentration in plasma: 24300 ng/mL

## O=C(O)CSCC(=O)O [Thiodiglycolic Acid]
[19]
  concentration in heart: 483 ng/g
[20]
  concentration in thymus: 547 ng/g
[21]
  concentration in thymus: 1430 ng/g
[22]
  concentration in plasma: 9230 ng/mL
[23]
  concentration in thymus: 5640 ng/g

## ClCCOCOCCCl [Bis 2-Chloroethoxy Methane]
[24]
  concentration in thymus: 49 ng/g
[25]
  concentration in plasma: 123 ng/mL
[26]
  concentration in plasma: 1930 ng/mL
[27]
  concentration in liver: 86.1 ng/g
[28]
  concentration in plasma: 3100 ng/mL
[29]
  concentration in plasma: 4820 ng/mL
[30]
  concentration in heart: 119 ng/g
[31]
  concentration in thymus: 78.9 ng/g
[32]
  concentration in plasma: 63.4 ng/mL

## CCCCOC(=O)c1ccccc1C(=O)O [Mono-n-butyl phthalate]
[33]
  concentration in plasma: 2060 ng/mL
[34]
  concentration in plasma: 1890 ng/mL
[35]
  concentration in plasma: 1110 ng/mL
[36]
  concentration in plasma: 8650 ng/mL
[37]
  concentration in plasma: 5350 ng/mL
[38]
  concentration in plasma: 32400 ng/mL
[39]
  concentration in plasma: 4950 ng/mL
